One data set can be described thus: solubility. The class given is physicochemical. The settings on record: for solubility in organic solvents: most of the organic solvents.
Data set [1] in a line: antipyretic effect, baker yeast hyperthermia (LOUX). The class given is in vivo. The settings on record: rats; paracetamol 50 to 500 mg. As to the method: The antipyretic effect of the compounds of formula I has been determined according to the method described by J. J. LOUX and cowork. Toxicol. and Appl. Pharmacol. 22 (1972) 672. According to this method a hyperthermic crisis occurs in the rats after subcutaneous injection of baker yeast.
The compounds to be tested are administered orally in a suspension of an arabic gum solution 19 hours after the injection of yeast.
The body temperatures are measured from 1 to 5 hours after the ingestion of the compounds of formula I by means of a thermistor. The dosages tested range from 25 to 200 mg/kg.
The increase of body temperature in the control rats is about 2° in comparison of that of the untreated rats. The animals which receive the compounds of formula I show only a moderate increase of temperature, mainly 3 and 4 hours after the ingestion of the tested compound. The highest dosages (150 and 200 mg/kg) caused a return to the initial temperature in the treated animals.
In similar experimental conditions, batches of rats receive paracetamol at dose ranging from 50 to 500 mg.

The conditions of data set [2]: nephrotoxicity and hepatotoxicity context; cited from earlier work.

Molecules are shown by their SMILES.

`CCCCCCCCCCCCCCCCNc1ccc(C(O)C(F)(F)F)cc1` (racemic) [Example 8, 1-(4-nhexadecylaminophenyl) 2,2,2-trifluoroethanol]: the “solubility in dilute solutions of acids” value in “solubility” (hydrochloric acid or acetic acid) is “soluble”.

In the case of `CC(=O)Nc1ccc(C(O)C(F)(F)F)cc1` (centres unmarked) [Example 1, 1-(4-acetamidophenyl) 2,2,2-trifluoroethanol], in “solubility” (ethanol), the solubility in ethanol entry was “soluble”. Further, the solubility in methanol entry in the data set “solubility” (methanol) is “soluble”. In “solubility”, the solubility in water result is reported as “insoluble”.

For the compound `CC(C)C(=O)Nc1ccc(C(O)C(F)(F)F)cc1` (centres unmarked) [Example 2, 1-(4-isobutyramidophenyl) 2,2,2-trifluoroethanol], in “solubility”, the “solubility in organic solvents” value is “soluble” and the solubility in water entry was “insoluble”.

For the compound `OC(c1ccc(NC2CCN(CCc3ccccc3)CC2)cc1)C(F)(F)F` (centres unmarked) [Example 9, 4-[4-(2,2,2-trifluoro 1-hydroxyethyl)phenylamino] 1-(2-phenylethyl) piperidine], the “solubility in N/10 hydrochloric acid” value in the data set “solubility” (just calculated amount of N/10 hydrochloric acid) was “soluble”.

Turning to `CCOC(c1ccc(NC(C)=O)cc1)C(F)(F)F` (centres unmarked) [Example 10, 1-(4-acetamidophenyl) 1-ethoxy 2,2,2-trifluoroethane], in “solubility”, the “solubility in organic solvents” value is recorded as “soluble” and the solubility in water entry is “insoluble”.

With `CC(=O)Nc1ccc(O)cc1` [paracetamol], the “useful dose which curbs significantly the increase of temperature, relative to compounds of formula I” value in data set [1] is “about twice of that of the compounds of formula I”. Besides, the toxicity result in data set [2] is on record as “well-known toxicity”.
